# Laboratory results: patent US12662491B2 (Redona Therapeutics, Inc., priority 2020, dated 2026)
# Biological target: T1, Zcchc11 enzyme (Homo sapiens, UniProt Q5TAX3)
# T1 construct: made in house; host or cells: HEK293 cells (Zcchc11); E. coli Rosetta II (LIN28A)
# T1 sequence (Q5TAX3 212-1420): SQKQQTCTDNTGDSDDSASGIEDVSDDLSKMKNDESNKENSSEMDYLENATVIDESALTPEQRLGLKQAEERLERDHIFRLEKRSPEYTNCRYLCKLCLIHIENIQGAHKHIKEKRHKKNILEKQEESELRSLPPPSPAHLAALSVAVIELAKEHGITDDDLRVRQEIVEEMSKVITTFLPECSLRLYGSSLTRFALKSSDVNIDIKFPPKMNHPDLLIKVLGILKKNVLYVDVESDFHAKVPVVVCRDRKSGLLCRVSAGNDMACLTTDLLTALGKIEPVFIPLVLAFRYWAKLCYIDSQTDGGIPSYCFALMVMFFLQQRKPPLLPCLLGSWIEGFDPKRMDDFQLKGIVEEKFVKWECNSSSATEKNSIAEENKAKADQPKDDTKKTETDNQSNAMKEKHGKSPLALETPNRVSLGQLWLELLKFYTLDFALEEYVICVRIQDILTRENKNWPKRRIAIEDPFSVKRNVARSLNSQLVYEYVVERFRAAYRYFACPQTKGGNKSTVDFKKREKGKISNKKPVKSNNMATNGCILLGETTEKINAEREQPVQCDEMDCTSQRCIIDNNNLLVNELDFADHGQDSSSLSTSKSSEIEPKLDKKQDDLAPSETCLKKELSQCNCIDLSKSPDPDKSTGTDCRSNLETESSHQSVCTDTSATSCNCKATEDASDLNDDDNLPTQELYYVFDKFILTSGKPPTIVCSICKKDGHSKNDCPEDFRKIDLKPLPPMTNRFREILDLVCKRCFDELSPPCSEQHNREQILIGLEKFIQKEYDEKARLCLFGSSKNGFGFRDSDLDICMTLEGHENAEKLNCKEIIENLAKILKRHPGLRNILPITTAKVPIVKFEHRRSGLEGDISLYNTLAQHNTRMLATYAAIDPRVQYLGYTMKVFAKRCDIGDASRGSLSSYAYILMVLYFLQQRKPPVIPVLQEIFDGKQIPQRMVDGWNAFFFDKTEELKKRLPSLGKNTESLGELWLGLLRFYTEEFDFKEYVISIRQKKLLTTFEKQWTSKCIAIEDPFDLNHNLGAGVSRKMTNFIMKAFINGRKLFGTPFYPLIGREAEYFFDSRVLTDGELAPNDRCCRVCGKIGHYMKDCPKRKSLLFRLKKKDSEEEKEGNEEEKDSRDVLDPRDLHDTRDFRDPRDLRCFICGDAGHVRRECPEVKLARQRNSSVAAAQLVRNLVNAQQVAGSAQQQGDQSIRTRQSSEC
# Experiment: TUTase assay (Zcchc11 assay, Lin28a-dependent polyuridylation of pre-let-7)
# Format: biochemical
# Details: Lin28a-dependent Zcchc11 (Z11) TUTase activity; read-out: Potency Lin28a-dep Z11 IC50
# Summary of the method: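 Potency is measured as inhibition of LIN28A-driven U-tail addition to 2 nM pre-let-7 by 0.2 nM HEK293-derived Zcchc11 fragment with 5 uM UTP at room temperature. Tail growth appears as fluorescein quenching by an annealing rhodamine-A20 probe.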
row,Compound,IC50 [nM]
1,"CN(C)C1CN(c2ccc(-n3cc(C(=O)O)c(=O)c4cc(Cl)c(N5CCC[C@@H]5COc5cnccc5Cl)cc43)cn2)C1 [Compound 320, 6-Chloro-7-[(2R)-2-[[(4 chloropyridin-3-yl)oxy]methyl]pyrrolidin-1-yl]-1-[6-[3-(dimethyl-amino)azetidin-1-yl]pyridin-3-yl]-4-oxoquinoline-3-carboxylic acid]",≤ 1000
2,"CN(C)C1CN(c2ccc(-n3cc(C(=O)O)c(=O)c4ccc(N5C(=O)CCCC5COc5ccccn5)cc43)cn2)C1 (stereo not shown) [Compound 323, 1-[6-[3-(Dimethyl-amino)azetidin-1-yl]pyridin-3-yl]-4-oxo-7-[2-oxo-6-[(pyridin-2-yloxy)methyl]piperidin-1-yl]quinoline-3-carboxylic acid]",> 50000
3,"CN(C)C1CN(c2ccc(-n3cc(C(=O)O)c(=O)c4cc(Cl)c(N5C(=O)CCCC5COc5ccccn5)cc43)cn2)C1 (stereo not shown) [Compound 324, 6-Chloro-1-[6-[3-(dimethyl-amino)azetidin-1-yl]pyridin-3-yl]-4-oxo-7-[2-oxo-6-[(pyridin-2-yloxy)methyl]piperidin-1-yl]quinoline-3-carboxylic acid]",10000 to 50000
4,"CN(C)C1CN(c2ccc(-n3cc(C(=O)O)c(=O)c4cc(F)c(N5CC(c6cccnc6)C[C@@H]5COc5ncccc5Cl)cc43)cn2)C1 (stereo partly drawn) [Compound 325, 7-[(2R)-2-[[(3-Chloropyridin-2-yl)oxy]methyl]-4-(pyridin-3-yl)pyrrolidin-1-yl]-1-[6-[3-(dimethyl-amino)azetidin-1-yl]pyridin-3-yl]-6-fluoro-4-oxoquinoline-3-carboxylic acid]",≤ 1000
5,"COCCN(C)C1CN(c2ccc(-n3cc(C(=O)O)c(=O)c4cc(F)c(N5CC(c6cccnc6)C[C@@H]5COc5ncccc5Cl)cc43)cn2)C1 (stereo partly drawn) [Compound 326, 7-[(2R)-2-[[(3-Chloropyridin-2-yl)oxy]methyl]-4-(pyridin-3-yl)pyrrolidin-1-yl]-6-fluoro-1-(6-[3-[(2-methoxyethyl) (methyl)amino]azetidin-1-yl]pyridin-3-yl)-4-oxoquinoline-3-carboxylic acid]",≤ 1000
6,"COC1C[C@H](COc2ncccc2Cl)N(c2cc3c(cc2Cl)c(=O)c(C(=O)O)cn3-c2ccc(N3CC(N(C)C)C3)nc2)C1 (stereo partly drawn) [Compound 327, 6-Chloro-7-[(2R)-2-[[(3-chloropyridin-2-yl)oxy]methyl]-4-methoxy-pyrrolidin-1-yl]-1-[6-[3-(dimethyl-amino)azetidin-1-yl]pyridin-3-yl]-4-oxoquinoline-3-carboxylic acid]",≤ 1000
7,"CC1C[C@H](COc2ncccc2Cl)N(c2cc3c(cc2F)c(=O)c(C(=O)O)cn3-c2ccc(N3CC(N(C)C)C3)nc2)C1 (stereo partly drawn) [Compound 330, 7-[(2R)-2-[[(3-Chloropyridin-2-yl)oxy]methyl]-4-methyl-pyrrolidin-1-yl]-1-[6-[3-(dimethyl-amino)azetidin-1-yl]pyridin-3-yl]-6-fluoro-4-oxoquinoline-3-carboxylic acic]",≤ 1000
8,"CN(C)C1CN(c2ccc(-n3cc(C(=O)O)c(=O)c4cc(Cl)c(N5CCC[C@@H]5COc5nc(O)ccc5Cl)cc43)cn2)C1 [Compound 331, 6-Chloro-7-[(2R)-2-[[(3-chloro-6-hydroxy-pyridin-2-yl)oxy]methyl]pyrrolidin-1-yl]-1-[6-[3-(dimethyl-amino)azetidin-1-yl]pyridin-3-yl]-4-oxoquinoline-3-carboxylic acid]",≤ 1000
9,"CC1CCN(c2cc3c(cc2Cl)c(=O)c(C(=O)O)cn3-c2ccc(N3CC(N(C)C)C3)nc2)C1COc1nc(N(C)C)ccc1Cl (stereo not shown) [Compound 332, 6-Chloro-7-[2-({[3-chloro-6-(dimethyl-amino)pyridin-2-yl]oxy}methyl)-3-methyl-pyrrolidin-1-yl]-1-{6-[3-(dimethyl-amino)azetidin-1-yl]pyridin-3-yl}-4-oxoquinoline-3-carboxylic acid]",≤ 1000
10,CC1CCN(c2cc3c(cc2Cl)c(=O)c(C(=O)O)cn3-c2ccnc(N)c2)[C@H]1COc1nc(N(C)C)ccc1Cl (stereo partly shown) [Compound 333],≤ 1000
11,"CN(C)C1CN(c2ccc(-n3cc(C(=O)O)c(=O)c4cc(F)c(N5C6CC6C[C@@H]5COc5nc6c(ccn6C)cc5Cl)cc43)cn2)C1 (stereo partly drawn) [Compound 334, 7-[(3R)-3-[({5-chloro-1-methylpyrrolo [2,3-b]pyridin-6-yl}oxy)methyl]-2-azabicyclo [3.1.0]hexan-2-yl]-1-{6-[3-(dimethyl-amino)azetidin-1-yl]pyridin-3-yl}-6-fluoro-4-oxoquinoline-3-carboxylic acid]",≤ 1000
12,"CN(C)c1ccc(Cl)c(OC[C@H]2C[C@@H]3C[C@@H]3N2c2cc3c(cc2F)c(=O)c(C(=O)O)cn3-c2ccc(N3CC(N(C)C)C3)nc2)n1 [Compound 335, 7-[(1S,3R,5S)-3-({[3-Chloro-6-(dimethyl-amino)pyridin-2-yl]oxy}methyl)-2-azabicyclo [3.1.0]hexan-2-yl]-1-{6-[3-(dimethyl-amino)azetidin-1-yl]pyridin-3-yl}-6-fluoro-4-oxoquinoline-3-carboxylic acid]",≤ 1000
13,"CN(C)C1CN(c2ccc(-n3cc(C(=O)O)c(=O)c4cc(Cl)c(N5C6CC6C[C@@H]5COc5nc(N)ccc5Cl)cc43)cn2)C1 (stereo partly drawn) [Compound 336, 7-[(3R)-3-{[(6-Amino-3-chloropyridin-2-yl)oxy]methyl}-2-azabicyclo [3.1.0]hexan-2-yl]-6-chloro-1-{6-[3-(dimethyl-amino)azetidin-1-yl]pyridin-3-yl}-4-oxoquinoline-3-carboxylic acid]",≤ 1000
14,"CN(C)C1CN(c2ccc(-n3cc(C(=O)O)c(=O)c4cc(F)c(N5[C@@H](COc6nc7c(ccn7C)cc6Cl)C[C@H]6C[C@H]65)cc43)cn2)C1 [Compound 337, 7-[(1R,3R,5R)-3-[{{5-Chloro-1-methyl-pyrrolo[2,3-b]pyridin-6-yl}oxy)methyl]-2-azabicyclo [3.1.0]hexan-2-yl]-1-{6-[3-(dimethyl-amino)azetidin-1-yl]pyridin-3-yl}-6-fluoro-4-oxoquinoline-3-carboxylic acid]",≤ 1000
15,"CN(C)c1ccc(Cl)c(OC[C@H]2C[C@H]3C[C@H]3N2c2cc3c(cc2F)c(=O)c(C(=O)O)cn3-c2ccc(N3CC(N(C)C)C3)nc2)n1 [Compound 338, 7-[(1R,3R,5R)-3-({[3-chloro-6-(dimethyl-amino)pyridin-2-yl]oxy}methyl)-2-azabicyclo [3.1.0]hexan-2-yl]-1-{6-[3-(dimethyl-amino)azetidin-1-yl]pyridin-3-yl}-6-fluoro-4-oxoquinoline-3-carboxylic acid]",≤ 1000
16,"CN(C)C1CN(c2ccc(-n3cc(C(=O)O)c(=O)c4cc(Cl)c(N5[C@@H](COc6nc(N)ccc6Cl)C[C@H]6C[C@H]65)cc43)cn2)C1 [Compound 339, 7-[(3R)-3-{[(6 Amino-3-chloropyridin-2-yl)oxy]methyl}-2-azabicyclo [3.1.0]hexan-2-yl]-6-chloro-1-{6-[3-(dimethyl-amino)azetidin-1-yl]pyridin-3-yl}-4-oxoquinoline-3-carboxylic acid]",≤ 1000
17,"COc1ccc(Cl)c(OC[C@H]2C[C@H]3C[C@H]3N2c2cc3c(cc2F)c(=O)c(C(=O)O)cn3-c2ccc(N(C)C)nc2)n1 [Compound 340, 7-[(1R,3R,5R)-3-{[(3-Chloro-6-methoxy-pyridin-2-yl)oxy]methyl}-2-azabicyclo [3.1.0]hexan-2-yl]-1-[6-(dimethyl-amino)pyridin-3-yl]-6-fluoro-4-oxoquinoline-3-carboxylic acid]",≤ 1000
18,"COc1ccc(Cl)c(OC[C@H]2C[C@H]3C[C@H]3N2c2cc3c(cc2Cl)c(=O)c(C(=O)O)cn3-c2ccc(N(C)C)nc2)n1 [Compound 341, 6-Chloro-7-[(1R,3R,5R)-3-{[(3-chloro-6-methoxy-pyridin-2 yl)oxy]methyl}-2-azabicyclo [3.1.0]hexan-2-yl]-1-[6-(dimethyl-amino)pyridin-3-yl]-4-oxoquinoline-3-carboxylic acid]",≤ 1000
19,"COc1ccc(F)c(OC[C@H]2C[C@H]3C[C@H]3N2c2cc3c(cc2Cl)c(=O)c(C(=O)O)cn3-c2ccnc(N)c2)n1 [Compound 342, 1-(2-Aminopyridin-4-yl)-6-chloro-7-[(1R,3R,5R)-3-{[(3-fluoro-6-methoxy-pyridin-2-yl)oxy]methyl}-2-azabicyclo [3.1.0]hexan-2-yl]-4-oxoquinoline-3-carboxylic acid]",≤ 1000
